Laboratory results reported in patent US20110256121A1, “METHODS AND KITS FOR DIAGNOSING OR MONITORING AUTOIMMUNE AND CHRONIC INFLAMMATORY DISEASES” (THE REGENTS OF THE UNIVERSITY OF MICHIGAN, priority 2008, published 2011).

Tests used:
CD70 mRNA = conditions: treated vs untreated T cells, real time RT-PCR
T cell CD70 expression = experiment: CD70 expression on PHA-stimulated T cells by flow cytometry; type: cell-based, human; conditions: for CD70 expression on treated vs untreated PHA-stimulated T cells: unfractionated T cells, 3 days, dose-response for procainamide, PD98059, U0126
Description: Cells and cell culture. Peripheral blood mononuclear cells (PBMCs) were isolated by density-gradient centrifugation. T cells were then isolated by E-rosetting (See, e.g., Golbus et al., Clin Immunol Immunopathol 46, 129 (1988)). […] Where indicated, the cells were cultured in RPMI 1640/10% fetal calf serum (FCS) supplemented with interleukin-2 (IL-2) (See, e.g., Richardson et al., Clin Immunol Immunopathol 55, 368 (1990)), in round-bottomed 5-ml culture tubes (Falcon). Cells were stimulated with 1 μg/ml of PHA (Remel) for 16 hours, then cultured in 24-well plates at a density of 1×10^6 for an additional 72 hours in the presence of 2-deoxy-5-azaC or 5-azaC (Sigma-Aldrich), procainamide (Sigma-Aldrich), hydralazine (Sigma-Aldrich), or the MEK inhibitors U0126 (Promega) or PD98059 (Promega). In other studies, PHA-stimulated PBMCs were cultured in RPMI 1640/10% FCS and treated with indomethacin, chloroquine, hydrocortisone, and 6-mercaptopurine (6-MP) (all from Sigma-Aldrich). TT48E, a cloned, CD4+, tetanus toxoid-reactive human T cell line, was cultured as previously described (Cornacchia et al., J Immunol 140, 2197 (1988); Richardson et al., Arthritis Rheum 35, 647 (1992)).
Flow cytometric analysis. The following fluorochrome-conjugated monoclonal antibodies were obtained from BD PharMingen (San Diego, Calif.): FITC-conjugated anti-human CD70, CD2, or isotype-matched controls; phycoerythrin (PE)-conjugated anti-CD2, CD4, and CD8; and CyChromeconjugated anti-HLA-DR, CD2, and isotype controls. Staining and multicolor flow cytometric analysis were performed (See, e.g., Hale et al., Cell Immunol 220, 51 (2002)) using saturating concentrations of antibody.
The panel of inhibitors used included 5-azaC, an irreversible DNA methyltransferase inhibitor (See, e.g., Glover and Leyland-Jones, Cancer Treat Rep 71, 959 (1987)) procainamide, a competitive DNA methyltransferase inhibitor (See e.g., Scheinbart et al., J Rheumatol 18, 530 (1991)), and the ERK pathway inhibitors PD98059, U0126, and hydralazine.
Studies were performed examining the effects of the DNA methylation inhibitors on CD70 expression in CD4+ and CD8+ T cell subsets.

KIR2DL2 = KIR2DL2 transcripts by real-time quantitative RT-PCR; type: cell-based, human; conditions: relative to β-actin, p<0.001 for both
Description: T cell purification and culture. Peripheral blood mononuclear cells (PBMC) were isolated from healthy donors by density gradient centrifugation, stimulated for 18 hours with 1 μg/mlphytohemagglutinin (PHA) (Murex, Norcross, Ga.), then treated or not with 5 μm 5-azacytidine (5-azaC, Sigma, St. Louis, Mo.) for 72 hours as described (6). Total T cells, CD4^+ T cells or CD8′ T cells then were purified using the pan T cell isolation kit II or the CD4^+ and CD8^+ T cell isolation kit II from Miltenyi (Auburn, Calif.). T cells were typically >94% CD3^+ by flow cytometry. Jurkat cells (E6-1) were maintained in culture as described (11). This protocol was approved by the University of Michigan Institutional Review Board.
Real-time quantitative RT-PCR. Total RNA was isolated using the RNeasy Mini Kit (QIAGEN, Valencia, Calif.). Primers were designed to match polymorphic positions unique to KIR2DL2 or KIR2DL4 genes as described by Uhrberg et al. (13). Controls included β-actin primers as described (14). Real-time quantitative RT-PCR was performed with a Rotor-Gene 3000 (Corbett Robotics, San Francisco, Calif.) and QuantiTect SYBR Green RT-PCR kit (QIAGEN) according to manufacturer's instructions. cDNA synthesized from T cells was used to generate standard curves for β-actin, KIR2DL2 and KIR2DL4, and each experiment was repeated at least twice.
Confirmation at the protein and mRNA levels. […]

Row | SMILES | CD70 mRNA relative to beta-actin (CD70 mRNA) | increase of CD70 MFI on CD4+ T cells (T cell CD70 expression; 1 μM 5-azaC, n=5, P=0.025) [fold] | CD70 expression on CD4+ T cells (T cell CD70 expression) | 5-azaC concentration producing the greatest effect on CD70 expression (T cell CD70 expression; range of 5-azaC concentrations, n=5) [µM] | CD70 expression on treated vs untreated PHA-stimulated T cells (T cell CD70 expression; 1 μM 5-azaC) | KIR2DL2 mRNA in CD4+ and CD8+ T cells (KIR2DL2) | increase of CD70 MFI on CD4+ T cells (T cell CD70 expression; 40 μM U0126, n=4, P=0.039) [fold] | increase of CD70 MFI in T cells treated with U0126 (FIG. 2I) (T cell CD70 expression; U0126, P=0.085, stated in the CD8+ context) [fold]
1 | Nc1ncn([C@@H]2O[C@H](CO)[C@@H](O)[C@H]2O)c(=O)n1 [5-azaC, 5-azacytidine] | increased the expression of CD70 mRNA | 1.53±0.45 | increased CD70 expression on CD4+ T cells | 1 | small increase | increase is significant in both subsets |  | 
2 | N#CC(=C(/N)Sc1ccccc1N)/C(C#N)=C(\N)Sc1ccccc1N [U0126] | increased the expression of CD70 mRNA |  | increased CD70 expression on CD4+ T cells |  | increase in CD70 expression with treatment |  | 3.20±0.44 | 2.83±0.95
